Results reported in the NIST ThermoML archive (doi:10.1021/je800224k).
Numbers after ± are expanded uncertainties.

Conditions: Liquid

CCCCCCn1cc[n+](C)c1.F[P-](F)(F)(F)(F)F [1-hexyl-3-methylimidazolium hexafluorophosphate]
Conditions | mass density [kg/m3]
293.15 K, 101.33 kPa, Vibrating tube method | 1297 ± 4
312.9 K, 10000 kPa, Bellows volumetry | 1287 ± 4
312.9 K, 20000 kPa, Bellows volumetry | 1292 ± 4
312.9 K, 30000 kPa, Bellows volumetry | 1298 ± 4
312.9 K, 40000 kPa, Bellows volumetry | 1303 ± 4
312.9 K, 50000 kPa, Bellows volumetry | 1308 ± 4
312.9 K, 60000 kPa, Bellows volumetry | 1313 ± 4
312.9 K, 70000 kPa, Bellows volumetry | 1318 ± 4
312.9 K, 80000 kPa, Bellows volumetry | 1322 ± 4
312.9 K, 90000 kPa, Bellows volumetry | 1327 ± 4
312.9 K, 100000 kPa, Bellows volumetry | 1331 ± 4
312.9 K, 110000 kPa, Bellows volumetry | 1335 ± 4
312.9 K, 120000 kPa, Bellows volumetry | 1339 ± 4
312.9 K, 130000 kPa, Bellows volumetry | 1343 ± 4
312.9 K, 140000 kPa, Bellows volumetry | 1347 ± 4
312.9 K, 150000 kPa, Bellows volumetry | 1351 ± 4
312.9 K, 160000 kPa, Bellows volumetry | 1355 ± 4
312.9 K, 170000 kPa, Bellows volumetry | 1358 ± 4
312.9 K, 180000 kPa, Bellows volumetry | 1362 ± 4
312.9 K, 190000 kPa, Bellows volumetry | 1366 ± 4
312.9 K, 200000 kPa, Bellows volumetry | 1369 ± 4
313.15 K, 101.33 kPa, Vibrating tube method | 1280.7 ± 4
332.6 K, 10000 kPa, Bellows volumetry | 1271 ± 4
332.6 K, 20000 kPa, Bellows volumetry | 1277 ± 4
332.6 K, 30000 kPa, Bellows volumetry | 1283 ± 4
332.6 K, 40000 kPa, Bellows volumetry | 1289 ± 4
332.6 K, 50000 kPa, Bellows volumetry | 1294 ± 4
332.6 K, 60000 kPa, Bellows volumetry | 1299 ± 4
332.6 K, 70000 kPa, Bellows volumetry | 1304 ± 4
332.6 K, 80000 kPa, Bellows volumetry | 1309 ± 4
332.6 K, 90000 kPa, Bellows volumetry | 1313 ± 4
332.6 K, 100000 kPa, Bellows volumetry | 1318 ± 4
332.6 K, 110000 kPa, Bellows volumetry | 1322 ± 4
332.6 K, 120000 kPa, Bellows volumetry | 1326 ± 4
332.6 K, 130000 kPa, Bellows volumetry | 1330 ± 4
332.6 K, 140000 kPa, Bellows volumetry | 1334 ± 4
332.6 K, 150000 kPa, Bellows volumetry | 1338 ± 4
332.6 K, 160000 kPa, Bellows volumetry | 1342 ± 4
332.6 K, 170000 kPa, Bellows volumetry | 1346 ± 4
332.6 K, 180000 kPa, Bellows volumetry | 1350 ± 4
332.6 K, 190000 kPa, Bellows volumetry | 1353 ± 4
332.6 K, 200000 kPa, Bellows volumetry | 1357 ± 4
333.15 K, 101.33 kPa, Vibrating tube method | 1265.1 ± 3.9
352.7 K, 10000 kPa, Bellows volumetry | 1256 ± 4
352.7 K, 20000 kPa, Bellows volumetry | 1262 ± 4
352.7 K, 30000 kPa, Bellows volumetry | 1268 ± 4
352.7 K, 40000 kPa, Bellows volumetry | 1274 ± 4
352.7 K, 50000 kPa, Bellows volumetry | 1280 ± 4
352.7 K, 60000 kPa, Bellows volumetry | 1285 ± 4
352.7 K, 70000 kPa, Bellows volumetry | 1290 ± 4
352.7 K, 80000 kPa, Bellows volumetry | 1295 ± 4
352.7 K, 90000 kPa, Bellows volumetry | 1300 ± 4
352.7 K, 100000 kPa, Bellows volumetry | 1305 ± 4
352.7 K, 110000 kPa, Bellows volumetry | 1309 ± 4
352.7 K, 120000 kPa, Bellows volumetry | 1314 ± 4
352.7 K, 130000 kPa, Bellows volumetry | 1318 ± 4
352.7 K, 140000 kPa, Bellows volumetry | 1322 ± 4
352.7 K, 150000 kPa, Bellows volumetry | 1326 ± 4
352.7 K, 160000 kPa, Bellows volumetry | 1330 ± 4
352.7 K, 170000 kPa, Bellows volumetry | 1334 ± 4
352.7 K, 180000 kPa, Bellows volumetry | 1338 ± 4
352.7 K, 190000 kPa, Bellows volumetry | 1342 ± 4
352.7 K, 200000 kPa, Bellows volumetry | 1345 ± 4
353.15 K, 101.33 kPa, Vibrating tube method | 1249.8 ± 3.9
372.9 K, 10000 kPa, Bellows volumetry | 1241 ± 4
372.9 K, 20000 kPa, Bellows volumetry | 1248 ± 4
372.9 K, 30000 kPa, Bellows volumetry | 1254 ± 4
372.9 K, 40000 kPa, Bellows volumetry | 1260 ± 4
372.9 K, 50000 kPa, Bellows volumetry | 1266 ± 4
372.9 K, 60000 kPa, Bellows volumetry | 1271 ± 4
372.9 K, 70000 kPa, Bellows volumetry | 1277 ± 4
372.9 K, 80000 kPa, Bellows volumetry | 1282 ± 4
372.9 K, 90000 kPa, Bellows volumetry | 1287 ± 4
372.9 K, 100000 kPa, Bellows volumetry | 1292 ± 4
372.9 K, 110000 kPa, Bellows volumetry | 1296 ± 4
372.9 K, 120000 kPa, Bellows volumetry | 1301 ± 4
372.9 K, 130000 kPa, Bellows volumetry | 1306 ± 4
372.9 K, 140000 kPa, Bellows volumetry | 1310 ± 4
372.9 K, 150000 kPa, Bellows volumetry | 1314 ± 4
372.9 K, 160000 kPa, Bellows volumetry | 1318 ± 4
372.9 K, 170000 kPa, Bellows volumetry | 1322 ± 4
372.9 K, 180000 kPa, Bellows volumetry | 1326 ± 4
372.9 K, 190000 kPa, Bellows volumetry | 1330 ± 4
372.9 K, 200000 kPa, Bellows volumetry | 1334 ± 4
393 K, 10000 kPa, Bellows volumetry | 1226 ± 4
393 K, 20000 kPa, Bellows volumetry | 1233 ± 4
393 K, 30000 kPa, Bellows volumetry | 1240 ± 4
393 K, 40000 kPa, Bellows volumetry | 1246 ± 4
393 K, 50000 kPa, Bellows volumetry | 1252 ± 4
393 K, 60000 kPa, Bellows volumetry | 1258 ± 4
393 K, 70000 kPa, Bellows volumetry | 1264 ± 4
393 K, 80000 kPa, Bellows volumetry | 1269 ± 4
393 K, 90000 kPa, Bellows volumetry | 1274 ± 4
393 K, 100000 kPa, Bellows volumetry | 1279 ± 4
393 K, 110000 kPa, Bellows volumetry | 1284 ± 4
393 K, 120000 kPa, Bellows volumetry | 1289 ± 4
393 K, 130000 kPa, Bellows volumetry | 1293 ± 4
393 K, 140000 kPa, Bellows volumetry | 1298 ± 4
393 K, 150000 kPa, Bellows volumetry | 1302 ± 4
393 K, 160000 kPa, Bellows volumetry | 1306 ± 4
393 K, 170000 kPa, Bellows volumetry | 1310 ± 4
393 K, 180000 kPa, Bellows volumetry | 1314 ± 4
393 K, 190000 kPa, Bellows volumetry | 1318 ± 4
393 K, 200000 kPa, Bellows volumetry | 1322 ± 4
412.9 K, 10000 kPa, Bellows volumetry | 1211 ± 4
412.9 K, 20000 kPa, Bellows volumetry | 1219 ± 4
412.9 K, 30000 kPa, Bellows volumetry | 1226 ± 4
412.9 K, 40000 kPa, Bellows volumetry | 1232 ± 4
412.9 K, 50000 kPa, Bellows volumetry | 1239 ± 4
412.9 K, 60000 kPa, Bellows volumetry | 1245 ± 4
412.9 K, 70000 kPa, Bellows volumetry | 1251 ± 4
412.9 K, 80000 kPa, Bellows volumetry | 1256 ± 4
412.9 K, 90000 kPa, Bellows volumetry | 1262 ± 4
412.9 K, 100000 kPa, Bellows volumetry | 1267 ± 4
412.9 K, 110000 kPa, Bellows volumetry | 1272 ± 4
412.9 K, 120000 kPa, Bellows volumetry | 1277 ± 4
412.9 K, 130000 kPa, Bellows volumetry | 1282 ± 4
412.9 K, 140000 kPa, Bellows volumetry | 1286 ± 4
412.9 K, 150000 kPa, Bellows volumetry | 1291 ± 4
412.9 K, 160000 kPa, Bellows volumetry | 1295 ± 4
412.9 K, 170000 kPa, Bellows volumetry | 1299 ± 4
412.9 K, 180000 kPa, Bellows volumetry | 1303 ± 4
412.9 K, 190000 kPa, Bellows volumetry | 1307 ± 4
412.9 K, 200000 kPa, Bellows volumetry | 1311 ± 4
432.8 K, 10000 kPa, Bellows volumetry | 1197 ± 4
432.8 K, 20000 kPa, Bellows volumetry | 1205 ± 4
432.8 K, 30000 kPa, Bellows volumetry | 1212 ± 4
432.8 K, 40000 kPa, Bellows volumetry | 1219 ± 4
432.8 K, 50000 kPa, Bellows volumetry | 1226 ± 4
432.8 K, 60000 kPa, Bellows volumetry | 1232 ± 4
432.8 K, 70000 kPa, Bellows volumetry | 1238 ± 4
432.8 K, 80000 kPa, Bellows volumetry | 1244 ± 4
432.8 K, 90000 kPa, Bellows volumetry | 1250 ± 4
432.8 K, 100000 kPa, Bellows volumetry | 1255 ± 4
432.8 K, 110000 kPa, Bellows volumetry | 1260 ± 4
432.8 K, 120000 kPa, Bellows volumetry | 1265 ± 4
432.8 K, 130000 kPa, Bellows volumetry | 1270 ± 4
432.8 K, 140000 kPa, Bellows volumetry | 1275 ± 4
432.8 K, 150000 kPa, Bellows volumetry | 1279 ± 4
432.8 K, 160000 kPa, Bellows volumetry | 1284 ± 4
432.8 K, 170000 kPa, Bellows volumetry | 1288 ± 4
432.8 K, 180000 kPa, Bellows volumetry | 1292 ± 4
432.8 K, 190000 kPa, Bellows volumetry | 1297 ± 4
432.8 K, 200000 kPa, Bellows volumetry | 1301 ± 4
452.5 K, 10000 kPa, Bellows volumetry | 1183 ± 4
452.5 K, 20000 kPa, Bellows volumetry | 1191 ± 4
452.5 K, 30000 kPa, Bellows volumetry | 1199 ± 4
452.5 K, 40000 kPa, Bellows volumetry | 1206 ± 4
452.5 K, 50000 kPa, Bellows volumetry | 1213 ± 4
452.5 K, 60000 kPa, Bellows volumetry | 1219 ± 4
452.5 K, 70000 kPa, Bellows volumetry | 1226 ± 4
452.5 K, 80000 kPa, Bellows volumetry | 1232 ± 4
452.5 K, 90000 kPa, Bellows volumetry | 1237 ± 4
452.5 K, 100000 kPa, Bellows volumetry | 1243 ± 4
452.5 K, 110000 kPa, Bellows volumetry | 1248 ± 4
452.5 K, 120000 kPa, Bellows volumetry | 1254 ± 4
452.5 K, 130000 kPa, Bellows volumetry | 1259 ± 4
452.5 K, 140000 kPa, Bellows volumetry | 1263 ± 4
452.5 K, 150000 kPa, Bellows volumetry | 1268 ± 4
452.5 K, 160000 kPa, Bellows volumetry | 1273 ± 4
452.5 K, 170000 kPa, Bellows volumetry | 1277 ± 4
452.5 K, 180000 kPa, Bellows volumetry | 1282 ± 4
452.5 K, 190000 kPa, Bellows volumetry | 1286 ± 4
452.5 K, 200000 kPa, Bellows volumetry | 1290 ± 4
472.3 K, 10000 kPa, Bellows volumetry | 1169 ± 4
472.3 K, 20000 kPa, Bellows volumetry | 1177 ± 4
472.3 K, 30000 kPa, Bellows volumetry | 1185 ± 4
472.3 K, 40000 kPa, Bellows volumetry | 1193 ± 4
472.3 K, 50000 kPa, Bellows volumetry | 1200 ± 4
472.3 K, 60000 kPa, Bellows volumetry | 1207 ± 4
472.3 K, 70000 kPa, Bellows volumetry | 1213 ± 4
472.3 K, 80000 kPa, Bellows volumetry | 1220 ± 4
472.3 K, 90000 kPa, Bellows volumetry | 1226 ± 4
472.3 K, 100000 kPa, Bellows volumetry | 1231 ± 4
472.3 K, 110000 kPa, Bellows volumetry | 1237 ± 4
472.3 K, 120000 kPa, Bellows volumetry | 1242 ± 4
472.3 K, 130000 kPa, Bellows volumetry | 1247 ± 4
472.3 K, 140000 kPa, Bellows volumetry | 1253 ± 4
472.3 K, 150000 kPa, Bellows volumetry | 1257 ± 4
472.3 K, 160000 kPa, Bellows volumetry | 1262 ± 4
472.3 K, 170000 kPa, Bellows volumetry | 1267 ± 4
472.3 K, 180000 kPa, Bellows volumetry | 1271 ± 4
472.3 K, 190000 kPa, Bellows volumetry | 1276 ± 4
472.3 K, 200000 kPa, Bellows volumetry | 1280 ± 4
